{"source": "patent US4238390A", "about": "“Synthesis and biological activity of [D-Thr^2, Δ^3 Pro^5 ]-enkephalinamide” (Hoffmann-La Roche Inc., priority 1979, dated 1980)", "key": {"[1]": {"settings": "cited from earlier work; for analgesic activity (in words): prior-art report"}, "Guinea Pig Ileum": {"tested_on": "Guinea Pig Ileum", "experiment": "Opiate activity in guinea pig ileum assay", "assay_type": "cell-based", "description": "The opiate activity of [2-D-threonine, 5-(3,4-dehydroproline)]-enkephalinamide was measured according to the method of H. W. Kosterelitz, R. J. Lydon and H. A. Watt, British Journal of Pharmacology, volume 39 (1970), pp. 398-413. The results of the assay are shown in Table II and are compared with the opiate activities for human β-endorphin and Met-enkephaline."}, "[2]": {"tested_on": "5-hydroxytryptophan-induced diarrhea", "experiment": "Anti-diarrhea activity against 5-hydroxytryptophan-induced diarrhea in CF-1 mice", "assay_type": "in vivo, Male CF-1 mice", "settings": "for Mean Fecal Wt. (mg) + S.E.: 30 s before 10 mg/kg 5-HTP ip, 30-minute test period", "description": "Male CF-1 mice were used. The mice were housed at least one week prior to use. At the time of use, the mice were 49 days of age and weighed between 21-25 grams. The mice received, intravenously, vehicle, or the indicated amounts of, [D-Thr^2, Δ^3 Pro^5 ]enkephalinamide dissolved in sterile 0.9% sodium chloride. Thirty seconds later, 10 mg/kg of DL-5-hydroxytryptophan was administered intraperitoneally using distilled water as the vehicle. The mice were then immediately placed in individual open-bottomed wire cages resting on preweighed parafilm sheets. The mice were removed from their cages 30 minutes after receiving the DL-5-hydroxytryptophan. Any fecal material adhering to the sides of the wire cage was collected and placed on the parafilm sheets, and any visible urine on the sheets was blotted dry. The sheets were weighed, and the weight increment was considered to represent the amount of feces discharged during the 30-minute test period.\n(§1) The anti-diarrhea ED50 values were determined using a computer program \"ED50\" based on the probit method of D. J. Finney, \"Probit Analysis\", Cambridge University Press, Cambridge, Great Britain (1971). The average percent inhibition obtained at each dose level of [D-Thr^2, Δ^3 Pro^5 ]-enkephalinamide was used as the response."}, "5-HTP Diarrhea": {"tested_on": "5-HTP Diarrhea", "experiment": "Anti-diarrhea activity against 5-HTP diarrhea in CD-1 mice (comparative tests)", "assay_type": "in vivo, Male CD-1 mice", "settings": "for anti-diarrhea activity (in words): intravenously at a dose of 132 μ moles/kg", "description": "as §1\nMale CD-1 mice were obtained from Charles River, Inc., Wilmington, Massachusetts, and weighted between 18 and 25 grams at the time of use.\nAll compounds with the exception of 5-HTP were dissolved in sterile 0.9% sodium chloride solution. Distilled water was used as the vehicle for 5-HTP. All compounds were administered to the mice using a constant dosage volume of 0.2 ml/20 gms of body weight.\nIn the experiment involving naloxone HCl, it or the vehicle were given 5 minutes prior to the administration of β-endorphin.\nThe amount of diarrhea produced by 5-HTP was determined as follows. Immediately following the administration of 5-HTP, the mice were individually housed in open-bottomed wire cages of a width and length of 8.5 cm and a height of 7.5 cm, resting on preweighed plastic sheets. The mice were removed from the cages 30 minutes after receiving 5-HTP, and any visible urinary discharge present on the plastic sheet was blotted dry. The sheets were then reweighed. The weight increment was considered to represent fecal weight."}, "[3]": {"settings": "iv, 30 seconds prior to 10 mg/kg 5-HTP ip"}}, "note": "Square brackets hold non-standard residues; d marks the D form. Peptide text beside a SMILES is read from it. ΔPro = O=C(O)[C@@H]1C=CCN1", "data": [{"compound": "[D-Thr^2, Thz^5 ]-enkephalinamide", "values": [{"measurement": "analgesic activity (in words)", "setting": "[1]", "value": "potent analgesic agents"}]}, {"compound": "[D-Ala^2, MePhe^4, MetO^5 -ol] enkephalin", "values": [{"measurement": "oral activity (in words)", "setting": "[1]; Roemer et al., Nature 268, 547 (1977)", "value": "orally active"}, {"measurement": "analgesic activity (in words)", "setting": "[1]", "value": "most potent analgesic of the group"}]}, {"compound": "C[C@H](O)[C@@H](NC(=O)[C@@H](N)Cc1ccc(O)cc1)C(=O)NCC(=O)N[C@@H](Cc1ccccc1)C(=O)N1CC=C[C@H]1C(N)=O", "note": "[[D-Thr^2, Δ^3 Pro^5]-enkephalinamide, [2-D-threonine, 5-(3,4-dehydroproline)]-enkephalinamide] (H-Y[dT]GF[ΔPro]-NH2)", "values": [{"measurement": "IC50", "setting": "Guinea Pig Ileum", "value": 9.3, "unit": "nM"}, {"measurement": "Relative Potency", "setting": "Guinea Pig Ileum; human β-endorphin = 100, 5-(3,4-dehydroproline)]-enkephalinamide", "value": 330}, {"measurement": "Relative Potency", "setting": "Guinea Pig Ileum; human β-endorphin = 100, listed as Tyr-D-Thr-Gly-Phe-Δ Pro-NH2", "value": 336}, {"measurement": "Mean Fecal Wt. (mg) + S.E.", "setting": "[2]; 1.2 μm/kg iv", "value": "117.3 ± 11.06", "unit": "mg"}, {"measurement": "% Inhibition", "setting": "[2]; 1.2 μm/kg iv, 5-HTP 10 mg/kg ip", "value": 34.6, "unit": "%"}, {"measurement": "Mean Fecal Wt. (mg) + S.E.", "setting": "[2]; 3.60 μm/kg iv", "value": "80.1 ± 22.43", "unit": "mg"}, {"measurement": "% Inhibition", "setting": "[2]; 3.60 μm/kg iv, 5-HTP 10 mg/kg ip", "value": 55.3, "unit": "%"}, {"measurement": "Mean Fecal Wt. (mg) + S.E.", "setting": "[2]; 12.05 μm/kg iv", "value": "49.8 ± 14.44", "unit": "mg"}, {"measurement": "% Inhibition", "setting": "[2]; 12.05 μm/kg iv, 5-HTP 10 mg/kg ip", "value": 72.2, "unit": "%"}, {"measurement": "Mean Fecal Wt. (mg) + S.E.", "setting": "[2]; 24.10 μm/kg iv", "value": "37.9 ± 12.81", "unit": "mg"}, {"measurement": "% Inhibition", "setting": "[2]; 24.10 μm/kg iv, 5-HTP 10 mg/kg ip", "value": 78.9, "unit": "%"}, {"measurement": "inhibition of 5-hydroxytryptophan-induced diarrhea (in words)", "setting": "[2]; by intravenous injection", "value": "potent agent"}, {"measurement": "ED50 μm/kg + S.E.", "setting": "[2]; iv, probit method, 5-HTP 10 mg/kg ip", "value": "2.9 ± 1.74", "unit": "μm/kg"}]}, {"compound": "Met-Enkephalin", "values": [{"measurement": "IC50", "setting": "Guinea Pig Ileum", "value": 124, "unit": "nM"}, {"measurement": "Relative Potency", "setting": "Guinea Pig Ileum; human β-endorphin = 100", "value": 25}, {"measurement": "% Inhibition of 5-HTP Diarrhea ± S.E.", "setting": "5-HTP Diarrhea; 66 μmoles/kg iv", "value": "21.3 ± 15.9", "unit": "%"}, {"measurement": "% Inhibition of 5-HTP Diarrhea ± S.E.", "setting": "5-HTP Diarrhea; 132 μmoles/kg iv", "value": "23.7 ± 9.6", "unit": "%"}, {"measurement": "anti-diarrhea activity (in words)", "setting": "5-HTP Diarrhea", "value": "only weak anti-diarrhea activity"}, {"measurement": "Anti-Diarrhea ED50 ± S.E.", "setting": "5-HTP Diarrhea; [3]", "value": "> 132", "unit": "µmol/kg"}]}, {"compound": "[D-Met^2, Thz^5 ]-enkephalinamide", "values": [{"measurement": "analgesic activity (in words)", "setting": "[1]", "value": "potent analgesic agents"}]}, {"compound": "Human β-Endorphin", "values": [{"measurement": "IC50", "setting": "Guinea Pig Ileum", "value": 31, "unit": "nM"}, {"measurement": "Relative Potency", "setting": "Guinea Pig Ileum; human β-endorphin = 100", "value": 100}, {"measurement": "% Inhibition of 5-HTP Diarrhea ± S.E.", "setting": "5-HTP Diarrhea; 0.43 μmoles/kg iv", "value": "25.6 ± 16.1", "unit": "%"}, {"measurement": "% Inhibition of 5-HTP Diarrhea ± S.E.", "setting": "5-HTP Diarrhea; 0.86 μmoles/kg iv", "value": "46.6 ± 16.0", "unit": "%"}, {"measurement": "% Inhibition of 5-HTP Diarrhea ± S.E.", "setting": "5-HTP Diarrhea; 1.0 μmoles/kg sc", "value": "35.3 ± 14.2", "unit": "%"}, {"measurement": "% Inhibition of 5-HTP Diarrhea ± S.E.", "setting": "5-HTP Diarrhea; 1.73 μmoles/kg iv", "value": "58.3 ± 12.6", "unit": "%"}, {"measurement": "% Inhibition of 5-HTP Diarrhea ± S.E.", "setting": "5-HTP Diarrhea; 3.0 μmoles/kg sc", "value": "51.7 ± 9.9", "unit": "%"}, {"measurement": "% Inhibition of 5-HTP Diarrhea ± S.E.", "setting": "5-HTP Diarrhea; 3.46 μmoles/kg iv", "value": "62.2 ± 10.3", "unit": "%"}, {"measurement": "% Inhibition of 5-HTP Diarrhea ± S.E.", "setting": "5-HTP Diarrhea; 6.0 μmoles/kg sc", "value": "61.0 ± 6.9", "unit": "%"}, {"measurement": "% Inhibition of 5-HTP Diarrhea ± S.E.", "setting": "5-HTP Diarrhea; 6.92 μmoles/kg iv", "value": "66.4 ± 8.0", "unit": "%"}, {"measurement": "% Inhibition of 5-HTP Diarrhea ± S.E.", "setting": "5-HTP Diarrhea; 9.0 μmoles/kg sc", "value": "70.3 ± 8.7", "unit": "%"}, {"measurement": "% Inhibition of 5-HTP Diarrhea ± S.E.", "setting": "5-HTP Diarrhea; 13.84 μmoles/kg iv", "value": "92.2 ± 4.8", "unit": "%"}, {"measurement": "Anti-Diarrhea ED50 ± S.E.", "setting": "5-HTP Diarrhea; [3]", "value": "1.42 ± 0.636", "unit": "µmol/kg"}, {"measurement": "Anti-Diarrhea ED50 ± S.E.", "setting": "5-HTP Diarrhea; sc, 1 minute prior to 10 mg/kg 5-HTP ip", "value": "2.65 ± 1.425", "unit": "µmol/kg"}]}, {"compound": "Leu-Enkephalin", "values": [{"measurement": "% Inhibition of 5-HTP Diarrhea ± S.E.", "setting": "5-HTP Diarrhea; 66 μmoles/kg iv", "value": "0.0 ± 13.1", "unit": "%"}, {"measurement": "% Inhibition of 5-HTP Diarrhea ± S.E.", "setting": "5-HTP Diarrhea; 132 μmoles/kg iv", "value": "10.4 ± 7.7", "unit": "%"}, {"measurement": "anti-diarrhea activity (in words)", "setting": "5-HTP Diarrhea", "value": "only weak anti-diarrhea activity"}, {"measurement": "Anti-Diarrhea ED50 ± S.E.", "setting": "5-HTP Diarrhea; [3]", "value": "> 132", "unit": "µmol/kg"}]}, {"compound": "CN1CC[C@]23c4c5ccc(O)c4O[C@H]2[C@@H](O)C=C[C@H]3[C@H]1C5.O=S(=O)(O)O", "note": "[Morphine Sulfate]", "values": [{"measurement": "prevention of 5-HTP diarrhea (in words)", "setting": "5-HTP Diarrhea; intravenously or subcutaneously administered", "value": "effective in preventing this diarrhea"}]}, {"compound": "[D-Met^2, Pro^5 ]-enkephalinamide [D-Met^2 -Pro^5 -Enkephalin-Amide]", "values": [{"measurement": "analgesic activity (in words)", "setting": "[1]", "value": "potent analgesic agent"}, {"measurement": "% Inhibition of 5-HTP Diarrhea ± S.E.", "setting": "5-HTP Diarrhea; 0.20 μmoles/kg iv", "value": "1.7 ± 13.2", "unit": "%"}, {"measurement": "% Inhibition of 5-HTP Diarrhea ± S.E.", "setting": "5-HTP Diarrhea; 0.60 μmoles/kg iv", "value": "32.3 ± 13.4", "unit": "%"}, {"measurement": "% Inhibition of 5-HTP Diarrhea ± S.E.", "setting": "5-HTP Diarrhea; 1.20 μmoles/kg iv", "value": "36.9 ± 11.0", "unit": "%"}, {"measurement": "% Inhibition of 5-HTP Diarrhea ± S.E.", "setting": "5-HTP Diarrhea; 2.40 μmoles/kg iv", "value": "66.0 ± 7.6", "unit": "%"}, {"measurement": "% Inhibition of 5-HTP Diarrhea ± S.E.", "setting": "5-HTP Diarrhea; 4.30 μmoles/kg iv", "value": "88.6 ± 7.7", "unit": "%"}, {"measurement": "Anti-Diarrhea ED50 ± S.E.", "setting": "5-HTP Diarrhea; [3]", "value": "1.38 ± 0.310", "unit": "µmol/kg"}]}]}
